Measurements: patent US20230118795A1, “ARYL OR HETEROARYL PYRIDONE OR PYRIMIDINE DERIVATIVE, PREPARATION METHOD AND USE THEREOF” (SUZHOU ZELGEN BIOPHARMACEUTICALS CO., LTD., priority 2020, published 2023)
Where two headings read alike, the source gives them in different places.

Legend:
NCI-H358 tumor cells = test: H358 CDX tumor model, anti-tumor activity; type: in vivo; conditions: NCI-H358 xenograft in nude mice; for TV (mm^3) Day 0: Day 0 (at grouping), 20 mg/Kg intragastric every day; for % TGI / % Tumor Growth / TV (mm^3) Day 20: Day 20, 20 mg/Kg intragastric every day; for efficacy compared with control compound AMG 510 (in words): 20 mg/Kg
Experimental: 100 uL suspension containing 5×10^6 NCI-H358 tumor cells was subcutaneously injected into the right posterior back of nude mice. The health of the mice was monitored daily. Measurements were started when the tumor grew palpable. The tumor volume calculation formula was adopted: 0.5×L×W2, where L and W represented tumor length and width, respectively. The tumor grew to about 200 mm^3, the mice were randomly divided into groups. Mice were intragastrically administrated the corresponding dose (20 mg/Kg) of the compound's solution every day, and their general status was monitored at the same time. The tumor was measured 2 times a week, and the weight was measured twice a week.

[1] = system: NCI-H358 (KRAS^G12C mutation) cell; test: Cell assay of antiproliferative activity against NCI-H358 cell (Celltiter-Glo, 5 days); type: cell-based; conditions: 5 days incubation
Outline: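 KRAS G12C NCI-H358 cells were plated in 384-well format and incubated overnight before compound addition. Compounds were added as a 10-point series (diluted from 50 μM to 0.003 μM before transfer) and incubated 5 days. Viability by CellTiter-Glo luminescence, with IC50 from curve fitting.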

[2] = Pharmacokinetic test in mice, plasma concentration by LC/MS/MS; type: in vivo; conditions: male ICR mice, 30 mg/kg by gavage, CMC/TW80 carrier, n = 4, mean
Experimental: Evaluation of Pharmacokinetic Tests in Mice
Male ICR mice with a body weight of about 20-30 g, were given 30 mg/kg of solutions of compounds of Examples 10B, 16B, 18A, 63B and 78B of the present invention [CMC/TW80 as carrier] by gavage after fasting overnight. Blood samples were collected at 0.5, 1.0, 2.0, 4.0, 6.0, 8.0, 12 and 24 hours after the compound was administrated, and the concentrations of the compound in plasma were determined by LC/MS/MS.

SMILES: C=CC(=O)N1CCN(c2nc(=O)n(-c3c(C)ccnc3C(C)C)c3nc(-c4c(O)cccc4F)c(F)cc23)[C@@H](C)C1 [AMG510, reference compound]
- TV (mm^3) Day 0 (NCI-H358 tumor cells): 196 mm^3
- % TGI (NCI-H358 tumor cells): 86.8%
- % Tumor Growth (NCI-H358 tumor cells): 117%
- TV (mm^3) Day 20 (NCI-H358 tumor cells): 437 mm^3

SMILES: C=CC(=O)N1CCN(c2nc(=O)n(-c3c(C(C)C)cccc3S(C)(=O)=O)c3nc(-c4c(O)cccc4F)c(F)cc23)[C@@H](C)C1 (single isomer, unassigned) [Example 10B]
- IC50 [1]: 0.005 µM
- AUC0-t [2]: 1548 ng·h/mL
- Cmax [2]: 1570 ng/mL

SMILES: C=CC(=O)N1CCN(c2nc(=O)n(-c3c(S(C)(=O)=O)ccnc3C(C)C)c3nc(-c4c(O)cccc4F)c(F)cc23)[C@@H](C)C1 (single isomer, unassigned) [Example 18A]
- IC50 [1]: 0.013 µM
- AUC0-t ([2]; mouse, po, read-out: AUC0-t): 219 ng·h/mL
- Cmax ([2]; mouse, po, read-out: Cmax): 336 ng/mL

SMILES: C=CC(=O)N1CCN(c2nc(=O)n(-c3c(C(C)C)ccnc3S(C)(=O)=O)c3nc(-c4c(O)cccc4F)c(F)cc23)[C@@H](C)C1 (single isomer, unassigned) [Example 16B]
- IC50 [1]: 0.007 µM
- AUC0-t [2]: 46.1 ng·h/mL
- Cmax [2]: 26.1 ng/mL

SMILES: C=CC(=O)N1C[C@H](C)N(c2nc(=O)n(-c3c(C4CCC4)cccc3S(C)(=O)=O)c3nc(-c4c(O)cccc4F)c(F)cc23)C[C@H]1C (single isomer, unassigned) [Example 63B]
- IC50 [1]: 0.008 µM
- efficacy compared with control compound AMG 510 (in words) (NCI-H358 tumor cells): better efficacy than the control compound AMG 510
- TV (mm^3) Day 0 (NCI-H358 tumor cells): 196 mm^3
- % TGI (NCI-H358 tumor cells): 97.8%
- % Tumor Growth (NCI-H358 tumor cells): 19%
- TV (mm^3) Day 20 (NCI-H358 tumor cells): 263 mm^3
- AUC0-t [2]: 1540 ng·h/mL
- Cmax [2]: 796 ng/mL

SMILES: C=C(F)C(=O)N1CCN(c2nc(=O)n(-c3c(C(C)C)cccc3S(C)(=O)=O)c3nc(-c4ccccc4Cl)c(F)cc23)[C@@H](C)C1 [Example 23, (S)-7-(2-chlorophenyl)-6-fluoro-4-(4-(2-fluoroacryloyl)-2-methylpiperazin-1-yl)-1-(2-isopropyl-6-(methylsulfonyl)phenyl)pyridino[2,3-d]pyrimidin-2(1H)-one]
- IC50 ([1]; Homo sapiens, NCI-H358, 120 h): 1.1 µM

SMILES: C=CC(=O)N1CCN(c2nc(=O)n(-c3c(C(C)C)cccc3S(C)(=O)=O)c3nc(-c4c(F)cccc4C(=O)OC)c(F)cc23)[C@@H](C)C1 [Example 77]
- IC50 ([1]; Homo sapiens, NCI-H358, 120 h): > 10 µM

SMILES: C=CC(=O)N1CCN(c2nc(=O)n(-c3c(C(C)C)cccc3S(C)(=O)=O)c3nc(-c4ccccc4Cl)c(F)cc23)[C@@H](C)C1 [Example 30, (S)-4-(4-acryloyl-2-methylpiperazin-1-yl)-7-(2-chlorophenyl)-6-fluoro-1-(2-isopropyl-6-(methylsulfonyl)phenyl) pyridino[2,3-d]pyrimidin-2(1H)-one]
- IC50 [1]: 0.018 µM

SMILES: C=CC(=O)N1CCN(c2nc(=O)n(-c3c(S(C)(=O)=O)ccnc3C(C)C)c3nc(-c4c(O)cccc4F)c(F)cc23)[C@@H](C)C1 (single isomer, unassigned) [Example 18B]
- IC50 [1]: 0.46 µM

SMILES: C=CC(=O)N1CCN(c2nc(=O)n(-c3c(CC)cccc3S(C)(=O)=O)c3nc(-c4c(O)cccc4F)c(F)cc23)[C@@H](C)C1 (single isomer, unassigned) [Example 5B]
- IC50 [1]: 0.011 µM

SMILES: C=CC(=O)N1CCN(c2nc(=O)n(-c3ccccc3S(C)(=O)=O)c3nc(-c4c(O)cccc4F)c(F)cc23)C(CC(N)=O)C1 (stereo not drawn) [Example 61, 2-(4-acryloyl-1-(6-fluoro-7-(2-fluoro-6-hydroxyphenyl)-1-(2-(methylsulfonyl)phenyl)-2-oxo-1,2-dihydropyridino [2,3-d]pyrimidin-4-yl)piperazin-2-yl) acetamide]
- IC50 ([1]; Homo sapiens, NCI-H358, 120 h): > 10 µM

SMILES: C=CC(=O)N1C[C@H](C)N(c2nc(=O)n(-c3c(C(C)C)cccc3S(C)(=O)=O)c3nc(-c4c(O)cccc4F)c(F)cc23)C[C@H]1C (single isomer, unassigned) [Example 78B]
- IC50 [1]: 0.007 µM
- efficacy compared with control compound AMG 510 (in words) (NCI-H358 tumor cells): better efficacy than the control compound AMG 510
- TV (mm^3) Day 0 (NCI-H358 tumor cells): 196 mm^3
- % TGI (NCI-H358 tumor cells): 98.5%
- % Tumor Growth (NCI-H358 tumor cells): 13%
- TV (mm^3) Day 20 (NCI-H358 tumor cells): 231 mm^3
- AUC0-t [2]: 688 ng·h/mL
- Cmax [2]: 722 ng/mL

SMILES: C=CC(=O)N1CCN(c2nc(=O)n(-c3c(C)ccnc3S(C)(=O)=O)c3nc(-c4c(O)cccc4F)c(F)cc23)[C@@H](C)C1 [Example 1, 4-((S)-4-acryloyl-2-methylpiperazin-1-yl)-6-fluoro-7-(2-fluoro-6-hydroxyphenyl)-1-(4-methyl-2-(methylsulfonyl)pyridin-3-yl) pyridino [2,3-d] pyrimidin-2 (1H)-one]
- IC50 ([1]; Homo sapiens, NCI-H358, 120 h): 0.09 µM

SMILES: C=CC(=O)N1CCN(c2nc(=O)n(-c3c(C(C)C)ccnc3S(C)(=O)=O)c3nc(-c4ccccc4Cl)c(F)cc23)[C@@H](C)C1 [Example 20, (S)-4-(4-acryloyl-2-methylpiperazin-1-yl)-7-(2-chlorophenyl)-6-fluoro-1-(4-isopropyl-2-(methylsulfonyl)pyridin-3-yl) pyridino[2,3-d] pyrimidin-2(1H)-one]
- IC50 ([1]; Homo sapiens, NCI-H358, 120 h): 0.023 µM

SMILES: C=CC(=O)N1CCN(c2nc(=O)n(-c3cnccc3S(C)(=O)=O)c3nc(-c4c(O)cccc4F)c(F)cc23)[C@@H](C)C1 [Example 89]
- IC50 [1]: 1 to 10 µM

SMILES: C=CC(=O)N1CCN(c2nc(=O)n(-c3c(C(C)C)cccc3S(C)(=O)=O)c3nc(-c4ccnn4C)c(F)cc23)[C@@H](C)C1 [Example 68, (S)-4-(4-acryloyl-2-methylpiperazin-1-yl)-6-fluoro-1-(2-isopropyl-6-(methylsulfonyl)phenyl)-7-(1-methyl-1H-pyrazol-5-yl) pyridino [2,3-d] pyrimidin-2(1H)-one]
- IC50 ([1]; Homo sapiens, NCI-H358, 120 h): 2.2 µM

SMILES: C=CC(=O)N1CCN(c2nc(=O)n(-c3c(C4CC4)cccc3S(C)(=O)=O)c3nc(-c4c(F)cccc4F)c(F)cc23)[C@@H](C)C1 [Example 15, (S)-4-(4-acryloyl-2-methylpiperazin-1-yl)-1-(2-cyclopropyl-6-(methylsulfonyl)phenyl)-7-(2,6-difluorophenyl)-6-fluoropyridino [2,3-d] pyrimidin-2(1H)-one]
- IC50 ([1]; Homo sapiens, NCI-H358, 120 h): 0.058 µM

SMILES: C=CC(=O)N1CCN(c2nc(=O)n(-c3c(C)cccc3S(C)(=O)=O)c3nc(-c4c(O)cccc4F)c(F)cc23)CC1CC#N (stereo not drawn) [Example 91, 2-(1-acryloyl-4-(6-fluoro-7-(2-fluoro-6-hydroxyphenyl)-1-(2-methyl-6-(methylsulfonyl)phenyl)-2-oxo-1,2-dihydropyridino [2,3-d]pyrimidin-4-yl)piperazin-2-yl) acetonitrile]
- IC50 [1]: 1 to 10 µM

SMILES: C=CC(=O)N1CCN(c2nc(=O)n(-c3c(C(C)C)cccc3S(C)(=O)=O)c3nc(-c4ccn[nH]4)c(F)cc23)[C@@H](C)C1 [Example 69, (S)-4-(4-acryloyl-2-methylpiperazin-1-yl)-6-fluoro-1-(2-isopropyl-6-(methylsulfonyl)phenyl)-7-(1H-pyrazol-5-yl) pyridino[2,3-d] pyrimidin-2(1H)-one]
- IC50 ([1]; Homo sapiens, NCI-H358, 120 h): > 10 µM
